Target: T1, human recombinant ROCK1 kinase domain (amino acid 2-543) (Homo sapiens, UniProt Q13464)
T1 construct: human recombinant ROCK1 kinase domain (amino acid 2-543); His-tag; made in house; host or cells: Sf9 insect cells
Assay: ROCK Kinase Assay (SPA, P33 incorporation into peptide substrate)
Type: biochemical
Settings: 1 nM hROCK1, 1 uM ATP; eleven point dilution range, 50 uM to 0.8 nM or 10 uM to 0.8 nM (Example 98: 10 uM to 0.8 nM)
Procedure: ROCK inhibitor activity was determined using human recombinant ROCK1 kinase domain (amino acid 2-543) expressed in Sf9 cells (see WO9967283). The enzyme was purified using His-tag NTA column and Source15 HPLC chromatography. The assay of Rock-1 activity involved incubation with peptide substrate and ATP^33, the subsequent incorporation of P^33 into the peptide was quantified by Scintillation Proximity Assay (SPA—Amersham Pharmacia).
For IC50 determination, test compounds were typically dissolved at 10 mM in 100% DMSO, with subsequent serial dilution in 100% DMSO. Compounds were typically assayed over an eleven point dilution range with a concentration in the assay of 50 uM to 0.8 nM, in 3-fold dilutions. IC50 values were calculated by bespoke curve fitting software and then converted to pIC50. In some cases, compounds were assayed over an eleven point dilution range with a concentration in the assay of 10 uM to 0.8 nM, in 3-fold dilutions. […]
Assays were performed in opaque, white walled, 384 well plates, in a total assay volume of 20 ul. […] P^33 incorporation was quantified by scintillation counting in a Packard TopCount. When the reaction was terminated by addition of a 10 ul solution, P33 incorporation was quantified by luminescence detection using a Perkin-Elmer Viewlux ultraHTS microplate imager.

T1 sequence (Q13464 2-543): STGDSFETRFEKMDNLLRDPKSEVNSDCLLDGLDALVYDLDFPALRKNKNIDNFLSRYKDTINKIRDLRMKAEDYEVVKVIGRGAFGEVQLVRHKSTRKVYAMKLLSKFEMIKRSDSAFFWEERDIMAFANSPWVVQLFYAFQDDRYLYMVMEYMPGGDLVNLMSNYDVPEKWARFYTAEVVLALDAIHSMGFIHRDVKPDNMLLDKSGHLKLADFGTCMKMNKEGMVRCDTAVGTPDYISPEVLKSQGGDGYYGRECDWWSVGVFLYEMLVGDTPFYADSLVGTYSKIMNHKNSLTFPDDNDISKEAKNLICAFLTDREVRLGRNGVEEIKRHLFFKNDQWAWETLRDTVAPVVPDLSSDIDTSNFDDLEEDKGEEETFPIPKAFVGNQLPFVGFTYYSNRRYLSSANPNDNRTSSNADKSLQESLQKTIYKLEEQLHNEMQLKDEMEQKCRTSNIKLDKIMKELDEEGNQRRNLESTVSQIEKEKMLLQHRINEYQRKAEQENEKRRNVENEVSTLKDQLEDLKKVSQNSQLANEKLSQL

CC1=C(C(=O)Nc2cc3cn[nH]c3cc2F)C(c2ccc(Cl)cc2F)N=C(c2ccnc(Cl)c2)N1C (stereo not shown) [Example 98, 4-(4-chloro-2-fluorophenyl)-2-(2-chloro-4-pyridinyl)-N-(6-fluoro-1H-indazol-5-yl)-1,6-dimethyl-1,4-dihydro-5-pyrimidinecarboxamide]
activity in the ROCK kinase assay: not active
